Values quoted from earlier work, collected in US8968799B2, “Time delayed release mechanism for energizing composition and method of use” (Rise-N-Shine L.L.C., priority 2006, dated 2015).

Tests used:
[1] = cold, fatigue, sleep deprivation
[2] = particularly as methylcobalamin; healthy men and women

SMILES: N[C@@H](Cc1ccc(O)cc1)C(=O)O [Tyrosine, 4-hydroxyphenylalanine]
- effect on cognitive performance and mood under acute stress [1]: appears to prevent the substantial decline

SMILES: C/C1=C2/[N-][C@H]([C@H](CC(N)=O)[C@@]2(C)CCC(=O)NC[C@@H](C)OP(=O)([O-])O[C@H]2[C@@H](O)[C@@H](n3cnc4cc(C)c(C)cc43)O[C@@H]2CO)[C@]2(C)N=C(/C(C)=C3N=C(/C=C4N=C1[C@@H](CCC(N)=O)C\4(C)C)[C@@H](CCC(N)=O)[C@]\3(C)CC(N)=O)[C@@H](CCC(N)=O)[C@]2(C)CC(N)=O.[CH3-].[Co+3] [vitamin B12, methylcobalamin]
- effect on sleep time, sleep quality and daytime alertness [2]: decrease sleep time yet improve sleep quality and daytime alertness
